Data as given in paper PMC10247784, “Physiological activation of human and mouse bitter taste receptors by bile acids” (Communications Biology, 2023).

Biological target: T1, mouse Tas2r117 (Mus musculus, UniProt Q7M715)
T1 construct: expressed in transfected cells; host or cells: HEK293T-Gα16gust44
T1 sequence (Q7M715 1-330): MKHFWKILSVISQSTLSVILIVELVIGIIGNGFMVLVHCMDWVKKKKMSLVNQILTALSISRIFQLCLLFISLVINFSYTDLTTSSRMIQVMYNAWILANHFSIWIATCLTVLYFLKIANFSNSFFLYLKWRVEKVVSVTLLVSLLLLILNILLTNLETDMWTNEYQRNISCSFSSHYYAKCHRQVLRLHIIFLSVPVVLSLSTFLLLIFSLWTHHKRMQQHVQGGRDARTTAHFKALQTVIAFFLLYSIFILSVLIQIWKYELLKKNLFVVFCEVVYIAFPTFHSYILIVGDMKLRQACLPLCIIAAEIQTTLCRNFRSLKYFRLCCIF
Assay: Calcium imaging assay (FLIPR), HEK293T-Gα16gust44 cells transfected with mouse Tas2r117
Type: cell-based
Settings: for Δ F/F: Tas2r117; for RLU: sheet Tas2r117, time trace
Protocol: This set of bile acids was chosen because of their commercial availability in high purities, their diversity within the class of bile acids and their previous detection and quantitation in human blood. Stock solutions were prepared in DMSO.
As basal growth medium for the HEK293T-Gα16gust44 cell line[17],[59] served Dulbecco’s modified eagle medium (DMEM) (Thermo Fisher Scientific, Darmstadt, Germany) supplemented with 10 % fetal bovine serum (Sigma-Aldrich, Steinheim, Germany), 2 mM L-glutamine (Sigma-Aldrich, Steinheim, Germany), 100 units/ml penicillin (Sigma Aldrich, Steinheim, Germany) and 100 µg/ml streptomycin (Sigma Aldrich, Steinheim, Germany). Growth conditions were 37 °C, 5 % CO2 and saturated air-humidity[60].
HEK293T-Gα16gust44 cells were seeded on poly-D-lysine (10 µg/ml) coated 96-well plates to reach a confluence of 40-60 % the next day. For transient transfection 150 ng of plasmid DNA containing the receptor of interest and 0.3 µl lipofectamine 2000 (Thermo Fisher Scientific, Darmstadt, Germany) per well were used and transfection took place according to the manual of lipofectamine 2000. […] The empty vector DNA (mock) was transfected as negative control[14],[41].
Cells were loaded using the calcium-sensitive fluorescent dye Fluo-4-AM (Abcam, Cambridge, Great Britain) in the presence of 2.5 mM probenecid (Sigma-Aldrich, Steinheim, Germany) the day after transfection[13],[41]. 1 h after loading, cells were washed with C1 buffer using a BioTek Cell Washer, incubated in the dark for half an hour and washed again. For automated agonist application and measurement of fluorescence changes, a FLIPR^TETRA device (Molecular Devices, San José, United States) was used. Viability of cells was tested by application of 100 nM Somatostatin 14 (Bachem, Bubendorf, Switzerland)[42].
Measured data were negative control corrected by subtracting the signal of the mock-transfected cells and exported to Microsoft Excel using the FLIPR software ScreenWorks 4.2. In Microsoft Excel software, standardization of maximum fluorescence intensities to the basal fluorescence and normalization to the buffer-only control was done to calculate the relative fluorescence changes (ΔF/F).
Initial screening experiments performed in duplicate wells were confirmed by at least one replication and representative traces were selected for display. All dose-response relationships were determined by three independent experiments (biological replicates) performed in duplicates (technical replicates). Threshold concentrations, defined as lowest substance concentrations leading to statistically significant elevated fluorescence changes in receptor-transfected cells compared with empty vector-transfected cells, were determined using SigmaPlot with Student’s t-test to evaluate statistical significance (p < 0.01).

## C[C@H](CCC(=O)NCCS(=O)(=O)O)[C@H]1CC[C@H]2[C@@H]3[C@H](O)C[C@@H]4C[C@H](O)CC[C@]4(C)[C@H]3C[C@H](O)[C@]12C [Taurocholic Acid, taurocholic acid]
  EC50: 37.4 ± 7.3 µM
conc. 0,01 mM
  Δ F/F: 0.02164
conc. 0,1 mM
  Δ F/F: 0.0925
conc. 0,03 mM
  Δ F/F: 0.05976
conc. 0,3 mM
  Δ F/F: 0.1209
conc. 0,0003 mM
  Δ F/F: -0.001001
conc. 0,001 mM
  Δ F/F: -0.004431
conc. 0,003 mM
  Δ F/F: 0.00222
Time (s) 0
  RLU: 0 RLU
Time (s) 2
  RLU: 37 RLU
Time (s) 4
  RLU: -4.077 RLU
Time (s) 6
  RLU: 12.5668 RLU
Time (s) 8
  RLU: 5.638 RLU
Time (s) 12
  RLU: -15.6594 RLU
Time (s) 14
  RLU: 17.1601 RLU
Time (s) 16
  RLU: -10.5322 RLU
Time (s) 18
  RLU: -8.953 RLU
Time (s) 18.797
  RLU: 34.4566 RLU
Time (s) 20.797
  RLU: 16.7527 RLU
Time (s) 22.797
  RLU: -7.054 RLU
Time (s) 24.797
  RLU: 38.2926 RLU
Time (s) 26.797
  RLU: 125.403 RLU
Time (s) 28.797
  RLU: 141.128 RLU
Time (s) 30.797
  RLU: 183.922 RLU
Time (s) 32.797
  RLU: 250.112 RLU
Time (s) 34.797
  RLU: 267.824 RLU
Time (s) 36.797
  RLU: 315.731 RLU
Time (s) 38.797
  RLU: 324.81 RLU
Time (s) 40.797
  RLU: 359.212 RLU
Time (s) 42.797
  RLU: 402.392 RLU
Time (s) 44.797
  RLU: 440.644 RLU
Time (s) 46.797
  RLU: 454.758 RLU
Time (s) 48.797
  RLU: 463.447 RLU
Time (s) 50.797
  RLU: 471.258 RLU
Time (s) 52.797
  RLU: 487.155 RLU
Time (s) 54.797
  RLU: 505.642 RLU
Time (s) 56.797
  RLU: 516.341 RLU
Time (s) 58.797
  RLU: 527.833 RLU
Time (s) 60.797
  RLU: 539.947 RLU
Time (s) 62.797
  RLU: 536.466 RLU
Time (s) 64.797
  RLU: 575.129 RLU
Time (s) 66.797
  RLU: 570.621 RLU
Time (s) 68.797
  RLU: 568.562 RLU
Time (s) 70.797
  RLU: 591.97 RLU
Time (s) 72.797
  RLU: 606.798 RLU
Time (s) 74.797
  RLU: 593.706 RLU
Time (s) 76.797
  RLU: 614.892 RLU
Time (s) 78.797
  RLU: 632.141 RLU
Time (s) 80.797
  RLU: 632.141 RLU
Time (s) 82.797
  RLU: 632.241 RLU
Time (s) 84.797
  RLU: 611.445 RLU
Time (s) 86.797
  RLU: 626.947 RLU
Time (s) 88.797
  RLU: 643.242 RLU
Time (s) 90.797
  RLU: 605.466 RLU
Time (s) 92.797
  RLU: 611.522 RLU
Time (s) 94.797
  RLU: 620.11 RLU
Time (s) 96.797
  RLU: 645.547 RLU
Time (s) 98.797
  RLU: 644.046 RLU
Time (s) 100.797
  RLU: 637.565 RLU
Time (s) 102.797
  RLU: 626.02 RLU
Time (s) 104.797
  RLU: 634.671 RLU
Time (s) 106.797
  RLU: 616.97 RLU
Time (s) 108.797
  RLU: 624.712 RLU
Time (s) 110.797
  RLU: 625.807 RLU
Time (s) 112.797
  RLU: 626.586 RLU
Time (s) 114.797
  RLU: 603.263 RLU
Time (s) 116.797
  RLU: 606.551 RLU
Time (s) 118.797
  RLU: 596.327 RLU
Time (s) 120.797
  RLU: 576.654 RLU
Time (s) 122.797
  RLU: 563.677 RLU
Time (s) 124.797
  RLU: 585.101 RLU
Time (s) 126.797
  RLU: 566.056 RLU
Time (s) 128.797
  RLU: 584.636 RLU
Time (s) 130.797
  RLU: 552.659 RLU
Time (s) 132.797
  RLU: 568.02 RLU
Time (s) 134.797
  RLU: 561.297 RLU
Time (s) 136.797
  RLU: 551.223 RLU
Time (s) 137.562
  RLU: 556.479 RLU
Time (s) 143.578
  RLU: 502.769 RLU
Time (s) 149.578
  RLU: 498.126 RLU
Time (s) 155.578
  RLU: 490.146 RLU
Time (s) 161.578
  RLU: 459.867 RLU
Time (s) 167.578
  RLU: 446.745 RLU
Time (s) 173.578
  RLU: 415.03 RLU
Time (s) 179.578
  RLU: 413.791 RLU
Time (s) 191.578
  RLU: 382.098 RLU
Time (s) 197.578
  RLU: 382.449 RLU
Time (s) 209.578
  RLU: 344.754 RLU
Time (s) 221.578
  RLU: 256.376 RLU
Time (s) 233.578
  RLU: 235.774 RLU
Time (s) 239.578
  RLU: 212.664 RLU
Time (s) 245.578
  RLU: 220.667 RLU
Time (s) 293.578
  RLU: 147.781 RLU
Time (s) 299.578
  RLU: 155.364 RLU
Time (s) 305.578
  RLU: 177.719 RLU
Time (s) 311.578
  RLU: 178.93 RLU
Time (s) 317.578
  RLU: 167.01 RLU
Time (s) 323.578
  RLU: 136.818 RLU
Time (s) 329.578
  RLU: 148.504 RLU
Time (s) 335.578
  RLU: 153.255 RLU
Time (s) 341.578
  RLU: 110.601 RLU
Time (s) 347.578
  RLU: 112.243 RLU
Time (s) 353.578
  RLU: 94.0464 RLU
Time (s) 359.578
  RLU: 105.186 RLU
P < 0.01 vs empty vector
  Activation threshold concentration Tas2r117: 30 µM
